One molecule from patent US20120083472A1, “PHARMACEUTICAL COMPOSITION FOR PROMOTING THE HEALING OF WOUNDS AND CONTAINING LYSOPHOSPHATIDIC ACID AND AN ADENYLYL CYCLASE INHIBITOR AS ACTIVE INGREDIENTS” (SNU R&DB FOUNDATION, priority 2009, published 2012) can be followed below.

Molecules are shown by their SMILES.

What all share (assay type): cell-based, human
Assay [1] concerns young and senescent fibroblasts (HDFs). Nature of the assay: In vitro wound healing assay (cell migration into acellular area). On the procedure:
Sub-cultured young (A, C) and senescent cells (B, D) were serum-starved for 2 days and treated with ACI or dbcAMP (1 mM) for 2 hr at 37° C. An area was denuded by a yellow tip and the cells were then treated with LPA (30 μM) and incubated at 37° C. Photographs were taken at 6 hrs, 12 hrs, 18 hrs, 24 hrs, 30 hrs, 36 hrs, 42 hrs, 60 hrs, and 72 hrs, and the number of cells migrated into the acellular area was counted and the average values were plotted in A and B. The data at 72 hrs were replotted in a bar graph to show the significant changes induced by treating cells with either LPA or ACI, or both (C and D). The results shown represent the means±standard deviation of a representative experiment. Cell migration from each group (p<0.001) was compared to the control value the migration was read as having a significance.
LPA-induced cell migration was assessed by the ability of the cells to move into an acellular area (Shiraha et al., 2000). Cells were plated on a 10-cm plastic dish and grown to 70-80% confluence in the culture media with 10% FBS. After a 2-day quiescence in serum free media with 0.1% BSA, cells were pretreated with vehicle, ACI (300 μM), or dbcAMP (1 mM) for 2 hrs at 37° C. An area was denuded by a tip and the cells were then incubated at 37° C. without or with LPA (30 μM). Photographs were taken at 6 hrs, 12 hrs, 18 hrs, 24 hrs, 30 hrs, 36 hrs, 42 hrs, 60 hrs, and 72 hrs, and the number of cells migrating to the acellular area was counted.

The subject of assay [2] is young and senescent fibroblasts, HUVEC, skin keratinocytes. Nature of the assay: DNA synthesis ([3H]-thymidine incorporation). As to conditions: senescent cells; 1 mM dbcAMP or 300 μM ACI 2 hrs, then 30 μM LPA (FIG. 4A). On the procedure: Sub-cultured young (PD 25) and senescent (PD 73) cells (A), skin fibroblasts from young and elderly donors (B), HUVEC (C) and skin keratinocytes (D) were serum-starved for 2 days and treated with 1 mM of dibutyryl-cAMP (dbcAMP), or 300 […]μM of ACI (SQ22536) for 2 hrs. Cells were then treated with 30 μM of LPA in the presence of 0.5 μCi/ml of [^3H]-radioactive isotope. The radioactivity incorporated into the DNA was counted and fold increase of radioactive isotope incorporation was calculated and plotted. The results shown represent the means±standard deviation of a representative experiment. Human umbilical vein endothelial cells (HUVEC) were isolated from endothelial cells of umbilical cords as described by Whang et al (Whang et al., 2005). Foreskin human fibroblasts and keratinocytes were isolated from newborn foreskins as described by Boyce and Ham (Boyce and Ham, 1983). Patient consents were obtained from all donors and the use of tissue samples was approved by the ethics committee of the Seoul National University. The obtained and isolated fibroblasts and HUVEC were maintained in DMEM containing 10% fetal bovine serum (FBS) and antibiotics, and keratinotyes were in keratinocyte growth medium (KGM) containing antibiotics. Cells from the early stage of culture were cultured to obtain aged cells, which were used in experiments (population doubling -PD- of less than 25 vs PD 65-70 in fibroblasts, PD less than 5 vs PD 10-12 in case of HUVEC). Senescent cells were characterized by morphological changes, enhanced […]β-galactosidase activity and a reduced rate of proliferation (Yeo et al., 2000). Cells were grown for 2 days to 60-70% sub-confluency in the culture medium after treatment with LPA or ACI, and then serum-starved to quiescence by incubating them with either serum free DMEM containing 0.1% BSA (fibroblasts or HUVEC) or KBM (keratinocytes) for 2 days. […] Radioactivity in the neutralized lysates was counted in a liquid scintillation cocktail. The measured radioactivity as such was compared to that of control to find the synthesis degree of […].

Assay [3] shares this test system. Nature of the assay: Cell growth / proliferation (cell number count). The note with it: both young and senescent cells, 1 mM dbcAMP after LPA, 4 days (FIG. 3). On the procedure:
Sub-cultured young (PD 25, A) and senescent (PD 73, B) fibroblasts were serum-starved for 2 days and treated with LPA, 1 mM of dbcAMP (+dbcAMP), or 300 μM of ACI SQ22536 (+ACI) for 4 days. The number of cells was counted. The results shown represent the means±standard deviation of a representative experiment.
Sub-cultured young (PD 25) and senescent (PD 73) cells (A), fibroblasts from young and elderly donors (B), HUVEC (C) and skin keratinocytes (D) were serum-starved for 2 days and treated with LPA, and then treated with 1 mM of dibutyryl-cAMP, or 300 μM of ACI (SQ22536) for 4 days. The number of cells was counted. The results shown represent the means±standard deviation of a representative experiment.
Human umbilical vein endothelial cells (HUVEC) were isolated from endothelial cells of umbilical cords as described by Whang et al (Whang et al., 2005). Foreskin human fibroblasts and keratinocytes were isolated from newborn foreskins as described by Boyce and Ham (Boyce and Ham, 1983). Patient consents were obtained from all donors and the use of tissue samples was approved by the ethics committee of the Seoul National University. The obtained and isolated fibroblasts and HUVEC were maintained in DMEM containing 10% fetal bovine serum (FBS) and antibiotics, and keratinotyes were in keratinocyte growth medium (KGM) containing antibiotics. Cells from the early stage of culture were cultured to obtain aged cells, which were used in experiments (population doubling -PD- of less than 25 vs PD 65-70 in fibroblasts, PD less than 5 vs PD 10-12 in case of HUVEC). Senescent cells were characterized by morphological changes, enhanced […]β-galactosidase activity and a reduced rate of proliferation (Yeo et al., 2000). Cells were grown for 2 days to 60-70% sub-confluency in the culture medium after treatment with LPA or ACI, and then serum-starved to quiescence by incubating them with either serum free DMEM containing 0.1% BSA (fibroblasts or HUVEC) or KBM (keratinocytes) for 2 days.

As to `CCCC(=O)Nc1ncnc2c1ncn2[C@@H]1O[C@@H]2COP(=O)(O)O[C@H]2[C@H]1OC(=O)CCC` [dbcAMP, dibutyryl cAMP], the LPA-induced cell migration entry in assay [1] (dbcAMP 1 mM with LPA 30 μM) was “reduced”. In assay [1] (young and senescent cells, 1 mM dbcAMP), the basal cell migration entry is on record as “did not significantly affect”. In addition, the “basal and LPA-stimulated DNA synthesis in senescent cells” value in assay [2] is recorded as “decreased”. Besides, in assay [3], the LPA-induced proliferation result is listed as “decreased”.
